Measured values: PMC3994669 (Cancer cell, 2014)
pEC50: −log10 of the molar value. Read-outs that look alike come from different tables or passages of the source. *1 amine or outer side, *2 acyl side, *3 side chain or, on linkers, in order; H or OH if unused. Where a SMILES comes first, the peptide text is derived from it. Bridges are numbered along the chain shown (N, C = ends). Roman numbers before positions name the chains, in order. [ ]: non-standard residue; d: D form. Actinocin(9to1) = Cc1c2oc3c(C)ccc(C(=O)[*:1])c3nc-2c(C(=O)[*:2])c(N)c1=O; NMeV = CN[C@H](C(=O)O)C(C)C; Sar = CNCC(=O)O

What was measured:
[1] = system: Myc1 mouse G3 MB neurospheres; experiment: Dose-response proliferation assay; type: cell-based; details: for pEC50: Mus musculus, 72 h, read-out: EC50 Myc1; for efficacy against Myc1: 72 hr treatment
Trp53-null neurospheres = experiment: Dose-response proliferation assay on control Trp53-null neurospheres; type: cell-based, mouse; details: for pEC50: Mus musculus, 72 h, read-out: EC50 Trp53-null; for efficacy against Trp53-null: 72 hr treatment
HepG2 = experiment: Dose-response proliferation assay on HepG2 control cells; type: cell-based; details: Homo sapiens, HepG2, read-out: EC50 HepG2
BJ = experiment: Dose-response proliferation assay on BJ control fibroblasts; type: cell-based; details: Homo sapiens, read-out: EC50 BJ
H3K27me3 = H3K27me3 immunoblotting of Myc1 cell lysates; type: cell-based, mouse; details: Myc1, 72 hr; 0.5 μM decitabine, 40 nM pemetrexed
[2] = system: four additional mouse G3 MB lines; experiment: Dose-response on four additional mouse G3 MB lines; type: cell-based; details: four independently derived mouse G3 MB lines
Myc1 neurospheres = experiment: In vitro wash-out experiments on Myc1; type: cell-based; details: Mus musculus
SHH MB-derived line = experiment: Dose-response on SHH MB-derived line; type: cell-based, mouse
[3] = system: TB-12-5950 G3 MB PDX neurospheres; experiment: Cell viability of G3 MB PDX TB-12-5950 neurospheres; type: cell-based; details: Homo sapiens, 72 h, read-out: EC50 TB-12-5950
[4] = system: OA-2012-1 G3 MB PDX neurospheres; experiment: Cell viability of G3 MB PDX OA-2012-1 neurospheres; type: cell-based; details: Homo sapiens, 72 h, read-out: EC50 OA-2012-1
[5] = system: human neural stem cells H9; experiment: Cell viability of human neural stem cells H9; type: cell-based; details: H9, 72 h, read-out: EC50 H9 cells
[6] = type: in vivo; details: murine plasma, single IV injection pemetrexed 200 mg/kg, gemcitabine 60 mg/kg
Myc1 mouse G3 MB = experiment: Survival of mice with cortical Myc1 G3 MB implants; type: in vivo; details: two doses of gemcitabine 60 mg/kg at days 2 and 9, vs vehicle
mouse G3 MB tumor cells = experiment: Cell death; type: cell-based
[7] = mouse, in vivo
Myc2 mouse G3 MB = experiment: Survival of mice with Myc2 G3 MB implants; details: treatment at days 4 and 11; vehicle 11 days
[8] = read-out: EC50 wash-out, 1 hr drug exposure, read 72 hr after
[9] = read-out: EC50 wash-out, 10 hr drug exposure, read 72 hr after
[10] = read-out: EC50 wash-out, 24 hr drug exposure, read 72 hr after

| Structure (SMILES) | pEC50 [1] | pEC50 (Trp53-null neurospheres) | pEC50 (HepG2) | other results |
| --- | --- | --- | --- | --- |
| COc1cc(NS(C)(=O)=O)ccc1Nc1c2ccccc2nc2ccccc12 [Amsacrine] | 6.80 | 6.26 | 4.96 | pEC50 (BJ): 4.89 |
| N=c1ccn2c(n1)O[C@H]1[C@H](O)[C@@H](CO)O[C@H]12 [Ancitabine] | 7.51 | 6.26 | – | – |
| CC(C)C[C@H](NC(=O)[C@H](Cc1ccccc1)NC(=O)c1cnccn1)B(O)O [Bortezomib] | 8.20 | 8.57 | 7.59 | pEC50 (BJ): 7.64 |
| COCc1c(C(C)C)nc(C(C)C)c(/C=C/[C@@H](O)C[C@@H](O)CC(=O)O)c1-c1ccc(F)cc1 [Cerivastatin] | 6.11 | 5.60 | 6.04 | – |
| Nc1nc(Cl)nc2c1ncn2[C@H]1C[C@H](O)[C@@H](CO)O1 [Cladrabine] | 8.37 | 6.60 | 5.48 | pEC50 (BJ): 5.85 |
| Nc1nc(Cl)nc2c1ncn2[C@@H]1O[C@H](CO)[C@@H](O)[C@@H]1F [Clofarabine] | 6.82 | 6.47 | – | – |
| CC1(C)N=C(N)N=C(N)N1c1ccc(Cl)cc1 [Cycloguanil] | 6.96 | 6.74 | – | – |
| Nc1ccn([C@@H]2O[C@H](CO)[C@@H](O)[C@@H]2O)c(=O)n1 [Cytarabine] | 7.08 | 6.70 | 7.11 | – |
| Cc1c2oc3c(C)ccc(C(=O)N[C@@H]4C(=O)N[C@H](C(C)C)C(=O)N5CCC[C@H]5C(=O)N(C)CC(=O)N(C)[C@@H](C(C)C)C(=O)O[C@@H]4C)c3nc-2c(C(=O)N[C@@H]2C(=O)N[C@H](C(C)C)C(=O)N3CCC[C@H]3C(=O)N(C)CC(=O)N(C)[C@@H](C(C)C)C(=O)O[C@@H]2C)c(N)c1=O [Dactinomycin] (I: T[dV]P[Sar][NMeV] / II: T[dV]P[Sar][NMeV]; ester I:1-I:C, II:1-II:C; linker I:N-II:N via Actinocin(9to1)) | 9.05 | 8.62 | 8.08 | – |
| COc1cccc2c1C(=O)c1c(O)c3c(c(O)c1C2=O)C[C@@](O)(C(C)=O)C[C@@H]3O[C@H]1C[C@H](N)[C@H](O)[C@H](C)O1 [Daunorubicin] | 8.12 | 7.44 | 5.77 | pEC50 (BJ): 7.00 |
| Nc1ncn([C@H]2C[C@H](O)[C@@H](CO)O2)c(=O)n1 [Decitabine] | 5.89 | 7.49 | – | efficacy against Myc1 [1]: 100%; efficacy against Trp53-null (Trp53-null neurospheres): ≤ 35%; H3K27me3 levels (H3K27me3): significantly decreased; potency and efficacy compared to Myc1 [2]: comparable potency and efficacy; pEC50 (Myc1 neurospheres; [8]): ~5.62; pEC50 (Myc1 neurospheres; [9]): ~6.04; pEC50 (Myc1 neurospheres; [10]): ~6.30 |
| COc1cccc2c1C(=O)c1c(O)c3c(c(O)c1C2=O)C[C@@](O)(C(=O)CO)C[C@@H]3O[C@H]1C[C@H](N)[C@H](O)[C@H](C)O1 [Doxorubicin] | 7.55 | 6.96 | 6.24 | pEC50 (BJ): 6.85 |
| COc1cc([C@@H]2c3cc4c(cc3[C@@H](O[C@@H]3O[C@@H]5CO[C@@H](C)O[C@H]5[C@H](O)[C@H]3O)[C@H]3COC(=O)[C@H]23)OCO4)cc(OC)c1O [Etoposide] | 6.62 | 7.34 | – | – |
| O=c1[nH]c(=O)n([C@H]2C[C@H](O)[C@@H](CO)O2)cc1F [Floxuridine] | 8.80 | 10.00 | – | – |
| O=c1[nH]cc(F)c(=O)[nH]1 [Fluorouracil] | 6.44 | 6.66 | – | – |
| CC(C)n1c(/C=C/C(O)CC(O)CC(=O)O)c(-c2ccc(F)cc2)c2ccccc21 (stereo not drawn) [Fluvastatin] | 5.35 | – | – | – |

| Structure (SMILES) | pEC50 [1] | pEC50 (Trp53-null neurospheres) | pEC50 (HepG2) | other results |
| --- | --- | --- | --- | --- |
| Nc1ccn([C@@H]2O[C@H](CO)[C@@H](O)C2(F)F)c(=O)n1 [Gemcitabine] | 8.68 | 9.49 | – | efficacy against Myc1 [1]: 100%; efficacy against Trp53-null (Trp53-null neurospheres): ≤ 63%; potency and efficacy compared to Myc1 [2]: comparable potency and efficacy; fold less sensitive compared to Myc1 (SHH MB-derived line): greater than 5 fold; pEC50 (Myc1 neurospheres; [8]): 7.36; pEC50 (Myc1 neurospheres; [9]): 7.89; pEC50 (Myc1 neurospheres; [10]): 8.42; pEC50 [3]: 8.29; pEC50 [4]: 7.96; pEC50 [5]: 8.82; clearance relative to previously published reports [6]: around 2 fold; increase in median survival (Myc1 mouse G3 MB): 11 days; histone 2AX (H2AX) foci (mouse G3 MB tumor cells; 1 hr treatment at 5 nM): induced histone 2AX (H2AX) foci; cell death by Annexin V staining (mouse G3 MB tumor cells; tumor cells in vitro): induced cell death; tolerability [7]: well tolerated; median survival (Myc2 mouse G3 MB): 26 days |
| CC[C@H](C)C(=O)O[C@H]1C[C@@H](C)C=C2C=C[C@H](C)[C@H](CC[C@@H]3C[C@@H](O)CC(=O)O3)[C@H]21 [Lovastatin] | 5.40 | 5.68 | 4.89 | – |
| CN(Cc1cnc2nc(N)nc(N)c2n1)c1ccc(C(=O)N[C@@H](CCC(=O)O)C(=O)O)cc1 [Methotrexate] | 8.28 | 6.82 | – | – |
| COC(=O)Nc1nc2ccc(C(=O)c3cccs3)cc2[nH]1 [Nocodazole] | 6.96 | 7.03 | 7.82 | – |
| O=C(O)C[C@H](O)C[C@H](O)/C=C/c1c(C2CC2)nc2ccccc2c1-c1ccc(F)cc1 [Pitavastatin] | 5.46 | – | 5.30 | – |
| COc1cc([C@@H]2c3cc4c(cc3[C@H](O)[C@H]3COC(=O)[C@H]23)OCO4)cc(OC)c1OC [Podofilox] | 8.19 | 8.13 | 8.41 | – |
| CCc1nc(N)nc(N)c1-c1ccc(Cl)cc1 [Pyrimethamine] | 5.31 | 6.06 | – | – |
| Cc1nc2ccc(CN(C)c3ccc(C(=O)N[C@@H](CCC(=O)O)C(=O)O)s3)cc2c(=O)[nH]1 [Raltitrexed] | 8.52 | 6.47 | – | – |
| CC(C)c1nc(N(C)S(C)(=O)=O)nc(-c2ccc(F)cc2)c1/C=C/[C@@H](O)C[C@@H](O)CC(=O)O [Rosuvastatin] | 5.59 | – | – | – |
| CCC(C)(C)C(=O)O[C@H]1C[C@@H](C)C=C2C=C[C@H](C)[C@H](CC[C@@H]3C[C@@H](O)CC(=O)O3)[C@H]21 [Simvastatin] | 5.52 | – | 5.03 | pEC50 (BJ): 5.24 |
| Nc1nc2nc[nH]c2c(=S)[nH]1 [Thioguanine] | 6.36 | 6.10 | 4.96 | – |
| CC[C@@]1(O)C(=O)OCc2c1cc1n(c2=O)Cc2cc3c(CN(C)C)c(O)ccc3nc2-1 [Topotecan] | 7.12 | 6.74 | 7.05 | – |
| O=c1[nH]c(=O)n([C@H]2C[C@H](O)[C@@H](CO)O2)cc1C(F)(F)F [Trifluridine] | 7.42 | 8.54 | – | – |
| COc1cc(NCc2ccc3nc(N)nc(N)c3c2C)cc(OC)c1OC [Trimetrexate] | 7.46 | 8.33 | – | – |
| CC[C@]1(O)C[C@@H]2CN(CCc3c([nH]c4ccccc34)[C@@](C(=O)OC)(c3cc4c(cc3OC)N(C)[C@H]3[C@@](O)(C(=O)OC)[C@H](OC(C)=O)[C@]5(CC)C=CCN6CC[C@]43[C@@H]65)C2)C1 [Vinblastine] | 7.92 | 7.82 | – | – |
| CC[C@]1(O)C[C@H]2CN(CCc3c([nH]c4ccccc34)[C@@](C(=O)OC)(c3cc4c(cc3OC)N(C=O)[C@H]3[C@@](O)(C(=O)OC)[C@H](OC(C)=O)[C@]5(CC)C=CCN6CC[C@]43[C@@H]65)C2)C1 [Vincristine] | 8.03 | 8.00 | – | toxicity in mice [7]: intolerable toxicity |
